Measurements as given in BindingDB's records for PubMed 1706470 (Abbott Laboratories, 1991).

Target: T1, Gastrin/cholecystokinin type B receptor (Cavia porcellus, UniProt H0VZC5)
T1 sequence (H0VZC5 whole entry): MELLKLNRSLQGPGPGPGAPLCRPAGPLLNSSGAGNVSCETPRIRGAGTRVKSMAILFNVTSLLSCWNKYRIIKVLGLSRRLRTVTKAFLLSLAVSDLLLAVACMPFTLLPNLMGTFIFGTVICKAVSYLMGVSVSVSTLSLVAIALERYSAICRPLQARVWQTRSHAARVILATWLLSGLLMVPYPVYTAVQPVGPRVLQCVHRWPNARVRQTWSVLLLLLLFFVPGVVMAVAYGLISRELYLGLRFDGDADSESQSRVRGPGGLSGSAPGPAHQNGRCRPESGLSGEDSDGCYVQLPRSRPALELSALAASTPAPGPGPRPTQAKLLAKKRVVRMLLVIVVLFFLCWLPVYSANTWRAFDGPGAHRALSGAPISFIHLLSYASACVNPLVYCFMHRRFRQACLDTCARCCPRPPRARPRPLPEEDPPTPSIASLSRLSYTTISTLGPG

CC(C)(C)OC(=O)NC(Cc1c[nH]c2ccccc12)C(=O)N(C(=O)C(N)Cc1ccccc1)C(=O)C(CC(=O)O)NC(=O)C(N)CCCCNC(=O)OCc1ccccc1 (stereo unspecified) [A-57282]
Ki: 510 nM
